Measurements taken from US11827917B1, “Methods for the conversion of fermentable sugars to ethanol” (Colorado State University Research Foundation, priority 2020, dated 2023).
“Also recorded” adds a separate entry of the source. Marks after values point to notes of the source that are not given here.

Tests used:
Format in all cases: cell-based, Saccharomyces cerevisiae
S. cerevisiae JAY 270 = assay: Screening of growth in 24-well plates on YPDA; conditions: for Cell growth score (colony size): YPDA, 30° C., 24 h
Method: Procedure: An inoculum culture of S. cerevisiae JAY 270 was grown in 100 mL of yeast extract-peptone-dextrose (YPD) medium (10 g/L yeast extract, 20 g/L peptone, 20 g/L glucose) in 200-mL serum bottles overnight in a shaker at 30° C. and 200 rpm. The cells were collected by centrifuging 10 min at 4000×g and 4° C. To wash off the medium residue, the cell pellet was resuspended in 30 mL of sterile 0.8% (w/v) NaCl solution and centrifuged at 4000×g for 10 min. The cell pellet was washed twice. Finally, the cell pellet was resuspended and diluted in 0.8% (w/v) NaCl to achieve cell concentrations of OD600=0.02 and 0.2.
The eight compounds were added in YPDA separately at 0.03%, 0.05%, 0.1%, and 0.2% (w/v). The standard control treatment contained only YPDA medium without addition of these compounds. Since the TrpOH and TyrOH stock solutions were dissolved in DMSO, the controls for those tests were YPDA with the same concentration of DMSO. A 3-mL aliquot of YPDA medium with or without the test compounds were loaded in each well of the 24-well plate.
Ten μL of the prepared S. cerevisiae JAY 270 cell suspension at OD600=0.02 or 0.2 was loaded onto the YPDA medium in each well of the 24-well plates. Then the plates were sealed with Parafilm and incubated at 30° C. for 24 h. There were four biological replicates for each treatment.
Yeast cell growth was evaluated by visual observation of the colony size in the well and scored as 0, +, ++, and +++.

S. cerevisiae JAY 240 = assay: Serum-bottle cultivation in YPD, different yeast strains; conditions: 0.2%
Method: (§1) Analytical methods: Cell growth was evaluated by monitoring OD600 and cell dry mass concentration. For dry mass measurements, 1.0 mL of culture was transferred to a pre-dried and pre-weighed 2-mL centrifuge tube. The tubes were centrifuged for 10 min at 14000 rpm using a microcentrifuge, and then the cell pellets were dried in an oven for 3 days at 65° C. The cell dry mass was determined by subtracting the initial tube mass from the dried mass of tube with cells. The concentrations of glucose, ethanol, and glycerol were measured via HPLC (Shimadzu LC20A series) outfitted with a refractive index detector and using an Aminex HPX-87H (300×7.8 mm) organic acid column and Cation H+ guard cartridge (Bio Rad Laboratories, Hercules, CA). The column was maintained at 65° C. and the mobile phase was 5 mM sulfuric acid with a flow rate of 0.6 mL/min. Standard compound solutions were used to calibrate the HPLC. Each sample was analyzed three times by HPLC.
(§2) Procedure: Seven yeast strains (S. cerevisiae ATCC 26603, S. cerevisiae JAY 238, S. cerevisiae JAY 240, S. cerevisiae JAY 241, S. paradoxus JAY 1502, S. kudriavzezii JAY 1503, and S. mikatae JAY 1504) were pre-cultured in 30 mL of YPD medium in 100 mL serum bottle overnight in a shaker at 30° C. and 200 rpm. The precultured yeast cells of each strains were collected and washed twice. Finally, the cell pellet was resuspended in about 10 mL 0.8% (w/v) NaCl and the OD600 measured. TyrOH, PheOH, and TrpOH were added to 30 mL of YPD medium in 100-mL serum bottles at 0.2% (w/v) respectively. The same amount of DMSO was added in YPD medium and served as control to the TrpOH and TyrOH treatments. The prepared yeast cells were added to obtain the initial cell concentration at OD600=0.2. The serum bottles were sealed and cultured in a shaker at 30° C. and 200 rpm for 24 h. There were three biological replicates for each treatment.

S. cerevisiae JAY 241 = assay: as above; conditions: 0.2%
Method: as §1, §2

S. cerevisiae JAY 238 = assay: as above; conditions: 0.2%
Method: as §1, §2

S. cerevisiae ATCC 26603 = assay: as above; conditions: 0.2%
Method: as §1, §2

[1] = S. cerevisiae JAY 240, YPD (Table 9B)
[2] = S. cerevisiae JAY 241, YPD (Table 9B)
[3] = S. cerevisiae JAY 238, YPD (Table 9B)
[4] = S. cerevisiae ATCC 26603, YPD (Table 9B)

OCCc1ccc(O)cc1 [TyrOH, Tyrosol]
Cell growth score (colony size) (S. cerevisiae JAY 270; 0.03% (w/v)): +++ | Cell growth score (colony size) (S. cerevisiae JAY 270; 0.05% (w/v)): +++ | Cell growth score (colony size) (S. cerevisiae JAY 270; 0.10% (w/v)): +++ | Cell growth score (colony size) (S. cerevisiae JAY 270; 0.20% (w/v)): + | Concentration at which cell growth was reduced in the plate assay (S. cerevisiae JAY 270; molar equivalent of the % w/v value): 7.2 mM | Effect on cell growth in the plate assay (words) (S. cerevisiae JAY 270; tested concentrations, 24-well plates): inhibited growth; also recorded: reduced the growth | Biomass Yield (S. cerevisiae JAY 240; S. cerevisiae JAY 240): 0.061 ± 0.002 g/g | Biomass yield % change vs. control (S. cerevisiae JAY 240; S. cerevisiae JAY 240): −16* % | EtOH yield (S. cerevisiae JAY 240; S. cerevisiae JAY 240): 0.446 ± 0.022 g/g | Glycerol yield (S. cerevisiae JAY 240; S. cerevisiae JAY 240): 0.034 ± 0.001 g/g | Glycerol yield % change vs. control (S. cerevisiae JAY 240; S. cerevisiae JAY 240): −15* % | DCW (S. cerevisiae JAY 240; S. cerevisiae JAY 240, YPD): 2.65 mg | DCW Δ vs. ref (S. cerevisiae JAY 240; S. cerevisiae JAY 240, YPD): 86.9% | OD600 (S. cerevisiae JAY 240; S. cerevisiae JAY 240, YPD): 2.09 | OD600 Δ vs. ref (S. cerevisiae JAY 240; S. cerevisiae JAY 240, YPD): 83.9% | Biomass Yield (S. cerevisiae JAY 240; [1]): 0.061 + 0.002 g/g | Biomass yield Δ vs. ref (S. cerevisiae JAY 240; [1]): −15.7% | Ethanol yield (S. cerevisiae JAY 240; [1]): 0.446 ± 0.022 g/g | Ethanol yield Δ vs. ref (S. cerevisiae JAY 240; [1]): 10.1% | Glycerol yield (S. cerevisiae JAY 240; [1]): 0.034 ± 0.001 g/g | Glycerol yield Δ vs. ref (S. cerevisiae JAY 240; [1]): −14.77% | Biomass Yield (S. cerevisiae JAY 241; S. cerevisiae JAY 241): 0.049 ± 0.000 g/g | Biomass yield % change vs. control (S. cerevisiae JAY 241; S. cerevisiae JAY 241): −16* % | EtOH yield (S. cerevisiae JAY 241; S. cerevisiae JAY 241): 0.422 ± 0.013 g/g | Glycerol yield (S. cerevisiae JAY 241; S. cerevisiae JAY 241): 0.043 ± 0.000 g/g | Glycerol yield % change vs. control (S. cerevisiae JAY 241; S. cerevisiae JAY 241): −23* % | DCW Δ vs. ref (S. cerevisiae JAY 241; S. cerevisiae JAY 241, YPD): 88.7% | OD600 (S. cerevisiae JAY 241; S. cerevisiae JAY 241, YPD): 1.68 | OD600 Δ vs. ref (S. cerevisiae JAY 241; S. cerevisiae JAY 241, YPD): 84.0% | Biomass Yield (S. cerevisiae JAY 241; [2]): 0.049 + 0.000 g/g | Biomass yield Δ vs. ref (S. cerevisiae JAY 241; [2]): −15.7% | Ethanol yield (S. cerevisiae JAY 241; [2]): 0.422 ± 0.013 g/g | Ethanol yield Δ vs. ref (S. cerevisiae JAY 241; [2]): 10.4% | Glycerol yield (S. cerevisiae JAY 241; [2]): 0.043 ± 0.000 g/g | Glycerol yield Δ vs. ref (S. cerevisiae JAY 241; [2]): −23.39% | Biomass Yield (S. cerevisiae JAY 238; S. cerevisiae JAY 238): 0.058 ± 0.001 g/g | Biomass yield % change vs. control (S. cerevisiae JAY 238; S. cerevisiae JAY 238): −14* % | EtOH yield (S. cerevisiae JAY 238; S. cerevisiae JAY 238): 0.455 ± 0.016 g/g | EtOH yield % change vs. control (S. cerevisiae JAY 238; S. cerevisiae JAY 238): +8.3* % | Glycerol yield (S. cerevisiae JAY 238; S. cerevisiae JAY 238): 0.036 ± 0.002 g/g | Glycerol yield % change vs. control (S. cerevisiae JAY 238; S. cerevisiae JAY 238): −8.3% | DCW (S. cerevisiae JAY 238; S. cerevisiae JAY 238, YPD): 2.35 mg | DCW Δ vs. ref (S. cerevisiae JAY 238; S. cerevisiae JAY 238, YPD): 83.9% | OD600 (S. cerevisiae JAY 238; S. cerevisiae JAY 238, YPD): 1.99 | OD600 Δ vs. ref (S. cerevisiae JAY 238; S. cerevisiae JAY 238, YPD): 85.0% | Biomass Yield (S. cerevisiae JAY 238; [3]): 0.058 + 0.001 g/g | Biomass yield Δ vs. ref (S. cerevisiae JAY 238; [3]): −13.9% | Ethanol yield (S. cerevisiae JAY 238; [3]): 0.455 ± 0.016 g/g | Ethanol yield Δ vs. ref (S. cerevisiae JAY 238; [3]): 8.3% | Glycerol yield (S. cerevisiae JAY 238; [3]): 0.036 ± 0.002 g/g | Glycerol yield Δ vs. ref (S. cerevisiae JAY 238; [3]): −8.30% | Biomass Yield (S. cerevisiae ATCC 26603; S. cerevisiae ATCC 26603): 0.056 ± 0.003 g/g | Biomass yield % change vs. control (S. cerevisiae ATCC 26603; S. cerevisiae ATCC 26603): −21* % | EtOH yield (S. cerevisiae ATCC 26603; S. cerevisiae ATCC 26603): 0.467 ± 0.015 g/g | EtOH yield % change vs. control (S. cerevisiae ATCC 26603; S. cerevisiae ATCC 26603): +7.7* % | Glycerol yield (S. cerevisiae ATCC 26603; S. cerevisiae ATCC 26603): 0.064 ± 0.006 g/g | Glycerol yield % change vs. control (S. cerevisiae ATCC 26603; S. cerevisiae ATCC 26603): −12* % | DCW (S. cerevisiae ATCC 26603; S. cerevisiae ATCC 26603, YPD): 1.53 mg | DCW Δ vs. ref (S. cerevisiae ATCC 26603; S. cerevisiae ATCC 26603, YPD): 86.8% | OD600 (S. cerevisiae ATCC 26603; S. cerevisiae ATCC 26603, YPD): 1.34 | OD600 Δ vs. ref (S. cerevisiae ATCC 26603; S. cerevisiae ATCC 26603, YPD): 95.5% | Biomass Yield (S. cerevisiae ATCC 26603; [4]): 0.056 + 0.003 g/g | Biomass yield Δ vs. ref (S. cerevisiae ATCC 26603; [4]): −20.6% | Ethanol yield (S. cerevisiae ATCC 26603; [4]): 0.467 ± 0.015 g/g | Ethanol yield Δ vs. ref (S. cerevisiae ATCC 26603; [4]): 7.7% | Glycerol yield (S. cerevisiae ATCC 26603; [4]): 0.064 ± 0.006 g/g | Glycerol yield Δ vs. ref (S. cerevisiae ATCC 26603; [4]): −11.82%
